Reference: US20090209528A1, “SUBSTITUTED TETRAHYDROISOQUINOLINE COMPOUND, THEIR PREPARATION AND USE IN MEDICAMENTS” (LABORATORIOS DEL DR. ESTEVE S.A., priority 2006, published 2009)
Structures can show the parent of a compound that is named as a salt.

Biological target: T1, 5HT6-human recombinant receptor (Homo sapiens, UniProt P50406)
T1 construct: purchased Receptor Biology; host or cells: HEK-293 cell membranes
Experiment: Binding to serotonin receptor 5-HT6 ([3H]-LSD displacement)
Details: radioligand [3H]-LSD 2.7 nM; for inhibition at 0.01 µM / inhibition at 0.1 µM: 1 h; for inhibition at 0.01 µM: compound at 10 nM; for inhibition at 0.1 µM: compound at 100 nM; for Ki: membranes of HEK-293 cells expressing the receptor, 60 min, 37° C.
Experimental: Cell membranes of HEK-293 cells expressing the 5HT6-human recombinant receptor were supplied by Receptor Biology. In said membranes the receptor concentration is 2.18 pmol/mg protein and the protein concentration is 9.17 mg/ml. The experimental protocol follows the method of B. L. Roth et al. [B. L. Roth, S. C. Craigo, M. S. Choudhary, A. Uluer, F. J. Monsma, Y. Shen, H. Y. Meltzer, D. R. Sibley: Binding of Typical and Atypical Antipsychotic Agents to 5-Hydroxytryptamine-6 and Hydroxytryptamine-7 Receptors. The Journal of Pharmacology and Experimental Therapeutics, 1994, 268, 1403] with the following slight changes. The respective part of the literature description is hereby incorporated by reference and forms part of the disclosure.
The commercial membrane is diluted (1:40 dilution) with the binding buffer: 50 mM Tris-HCl, 10 mM MgCl2, 0.5 mM EDTA (pH 7.4). The radioligand used is [^3H]-LSD at a concentration of 2.7 nM with a final volume of 200 μl. Incubation is initiated by adding 100 μl of membrane suspension, (≈22.9 μg membrane protein), and is prolonged for 60 minutes at a temperature of 37° C. The incubation is ended by fast filtration in a Brandel Cell Harvester through fiber glass filters made by Schleicher & Schuell GF 3362 pretreated with a solution of polyethylenimine at 0.5%. The filters are washed three times with three milliliters of buffer Tris-HCl 50 mM pH 7.4. The filters are transferred to flasks and 5 ml of Ecoscint H liquid scintillation cocktail are added to each flask. The flasks are allowed to reach equilibrium for several hours before counting with a Wallac Winspectral 1414 scintillation counter. Non-specific binding is determined in the presence of 100 μM of serotonin. Tests were made in triplicate. The inhibition constants (Ki, nM) were calculated by non-linear regression analysis using the program EBDA/LIGAND described in Munson and Rodbard, Analytical Biochemistry, 1980, 107, 220, the respective part of which is hereby incorporated by reference and forms part of the disclosure.

T1 sequence (P50406 whole entry): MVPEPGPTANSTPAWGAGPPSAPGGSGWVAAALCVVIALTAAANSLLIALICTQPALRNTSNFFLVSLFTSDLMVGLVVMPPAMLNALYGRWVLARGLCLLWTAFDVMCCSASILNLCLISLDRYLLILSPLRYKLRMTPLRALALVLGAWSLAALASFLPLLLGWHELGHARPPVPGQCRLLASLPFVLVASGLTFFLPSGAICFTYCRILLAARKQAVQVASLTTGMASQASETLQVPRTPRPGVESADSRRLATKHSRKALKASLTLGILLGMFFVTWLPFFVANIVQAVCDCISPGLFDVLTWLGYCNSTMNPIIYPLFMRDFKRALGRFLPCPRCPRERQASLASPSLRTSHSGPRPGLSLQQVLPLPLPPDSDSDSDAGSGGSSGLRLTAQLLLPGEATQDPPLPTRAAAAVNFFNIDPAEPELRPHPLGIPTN

inhibition at 0.01 µM [%]	inhibition at 0.1 µM [%]	Ki [nM]	Structure (SMILES)
81	91.9	10.7 ± 4.8	O=S(=O)(Nc1ccc2c(c1)CNCC2)c1c(Cl)nc2sccn12 [Example 54, 6-Chloro-imidazo[2,1-b]thiazole-5-sulfonic acid (1,2,3,4-tetrahydro-iso-quinolin-7-yl)-amide hydrochloride]
80.3	92.2	13.3	Cc1ccc(S(=O)(=O)Nc2ccc3c(c2)CCN(C)C3)c2ccccc12 [Example 7, 4-Methyl-naphthalene-1-sulfonic acid (2-methyl-1,2,3,4-tetrahydro-isoqui-nolin-6-yl)amide hydrochloride]
65.7	85.1	39.7 ± 7.4	O=S(=O)(Nc1ccc2c(c1)CNCC2)c1cccc2c(Cl)cccc12 [Example 154, 5-Chloro-naphthalene-1-sulfonic acid (1,2,3,4-tetrahydro-isoquinolin-7-yl)-amide Hydrochloride]
74.2	90	2.3 ± 0.2	CN1CCc2cc(NS(=O)(=O)c3c(Cl)nc4sccn34)ccc2C1 [Example 19, 6-Chloro-imidazo[2,1-b]thiazole-5-sulfonic acid (2-methyl-1,2,3,4tetrahydro-isoquinolin-6-yl)-amide hydrochloride]
-0.8	6.8		CC(C)(C)OC(=O)N1CCc2cc(NS(=O)(=O)c3cccnc3)ccc2C1 [Example 18, 6-(Pyridine-3-sulfonylamino)-3,4-dihydro-1H-isoquinoline-2-carboxylic acid tert-butyl ester]
78.2	88.9	9.3 ± 2.2	O=S(=O)(Nc1ccc2c(c1)CCNC2)c1cccc2c(Cl)cccc12 [Example 42, 5-Chloro-naphthalene-1-sulfonic acid (1,2,3,4-tetrahydro-isoquinolin-6-yl)-amide hydrochloride]
73.1	83.2	19.2 ± 2.4	Cc1ccc2nsnc2c1S(=O)(=O)Nc1ccc2c(c1)CNCC2 [Example 76, 5-Methylbenzo[1,2,5] thiadiazole-4-sulfonic acid (1,2,3,4-tetrahydro-isoquinolin-7-yl)-amide hydrochloride]
5.6	10.6		CC(C)(C)OC(=O)N1CCc2cc(NS(=O)(=O)c3ccc4ccccc4c3)ccc2C1 [Example 16, 6-(Naphthalene-2-sulfonylamino)-3,4-dihydro-1H-isoquinoline-2-carboxylic acid tert-butyl ester]
78.6	85.5	3.2 ± 0.4	O=S(=O)(Nc1ccc2c(c1)CNCC2)c1cccc2ccccc12 [Example 61, Naphthalene-1-sulfonic acid (1,2,3,4-tetrahydro-isoquinolin-7-yl)-amide hydrochloride]
60.1	88.8	14.5 ± 3.8	Cc1ccc(S(=O)(=O)Nc2ccc3c(c2)CCNC3)c2ccccc12 [Example 6, 4-Methyl-naphthalene-1-sulfonic acid (1,2,3,4-tetrahydro-isoquinolin-6-yl)amide hydrochloride]
82.3	84.9	3.8 ± 1.2	Cc1ccc(S(=O)(=O)Nc2ccc3c(c2)CNCC3)c2ccccc12 [Example 55, 4-Methyl-naphthalene-1-sulfonic acid (1,2,3,4-tetrahydro-isoquinolin-7-yl)-amide hydrochloride]
48.8	81.6	14.2 ± 1.5	CCc1ccc(OC)c(S(=O)(=O)Nc2ccc3c(c2)CCNC3)c1 [Example 35, 5-Ethyl-2-methoxy-N-(1,2,3,4-tetrahydro-isoquinolin-6-yl)-benzene sulfonamide hydrochloride]
70.3	84.1	9.4 ± 3.7	O=S(=O)(Nc1ccc2c(c1)CNCC2)c1ccc(Cl)c2ccccc12 [Example 81, 4-Chloro-naphthalene-1-sulfonic acid (1,2,3,4-tetrahydro-isoquinolin-7-yl)-amide hydrochloride]
53.3	74.8	13.8	O=S(=O)(Nc1ccc2c(c1)CCNC2)c1cccc2ccccc12 [Example 1, Naphthalene-1-sulfonic acid (1,2,3,4-tetrahydroisoquinolin-6-yl)-amide hydrochloride]
-5	8.2		Cc1ccc(S(=O)(=O)Nc2ccc3c(c2)CCN(C(=O)OC(C)(C)C)C3)c2ccccc12 [Example 15, 6-(4-Methyl-naphthalene-1-sulfonylamino)-3,4-dihydro-1H-isoquinoline-2-carboxylic acid tert-butyl ester]
63.2	85.2	7.8 ± 0.1	O=S(=O)(Nc1ccc2c(c1)CCNC2)c1ccc(F)c2ccccc12 [Example 30, 4-Fluoro-naphthalene-1-sulfonic acid (1,2,3,4-tetrahydro-isoquinolin-6-yl)-amide hydrochloride]
3.9	18.2		CN1CCc2cc(NS(=O)(=O)c3cccc4ccccc34)ccc2C1 [Example 3, Naphthalene-1-sulfonic acid (2-methyl-1,2,3,4-tetrahydro-isoquinolin-6-yl)-amide hydrochloride]
17	19.6		CN(c1ccc2c(c1)CC[N+](C)(C)C2)S(=O)(=O)c1cccc2ccccc12 [Example 2, 2,2-Dimethyl-6-[methyl-(naphthalene-1-sulfonyl)-amino]-1,2,3,4-tetrahydro isoquinolinium iodide]
70	83.6	6.5 ± 0.5	O=S(=O)(Nc1ccc2c(c1)CNCC2)c1ccc(F)c2ccccc12 [Example 80, 4-Fluoro-naphthalene-1-sulfonic acid (1,2,3,4-tetrahydro-isoquinolin-7-yl)-amide hydrochloride]
79.7	90.8	12.3 ± 6	O=S(=O)(Nc1ccc2c(c1)CCNC2)c1ccccc1-c1ccccc1 [Example 22, Biphenyl-2-sulfonic acid (1,2,3,4-tetrahydro-isoquinolin-6-yl)-amide hydrochloride]
55.4	82.8	3.8 ± 1	CN1CCc2ccc(NS(=O)(=O)c3c(Cl)nc4sccn34)cc2C1 [Example 53, 6-Chloro-imidazo[2,1-b]thiazole-5-sulfonic acid (2-methyl-1,2,3,4-tetrahydro-isoquinolin-7-yl)-amide hydrochloride]
45.5	64.7	54.6	O=S(=O)(Nc1ccc2c(c1)CNCC2)c1cccc2nonc12 [Example 72, Benzo[1,2,5]oxadiazole-4-sulfonic acid (1,2,3,4-tetrahydro-isoquinolin-7-yl)-amide hydrochloride]
77.5	85.8	2.1	O=S(=O)(Nc1ccc2c(c1)CNCC2)c1csc2ccccc12 [Example 78, Benzo[b]thiophene-3-sulfonic acid (1,2,3,4-tetrahydro-isoquinolin-7-yl)-amide hydrochloride]
37.4	74.6		O=S(=O)(Nc1ccc2c(c1)CCNC2)c1ccc2ccccc2c1 [Example 8, Naphthalene-2-sulfonic acid (1,2,3,4-tetrahydro-isoquinolin-6-yl)-amide hydrochloride]
-7.3	-3		Cc1c(S(=O)(=O)Nc2ccc3c(c2)CCN(C(=O)OC(C)(C)C)C3)sc2ccc(Cl)cc12 [Example 14, 6-(5-Chloro-3-methyl-benzo[b]thiophene-2-sulfonylamino)-3,4-dihydro-1H-isoquinoline-2-carboxylic acid tert-butyl ester]
78.9	88.4	6.1 ± 0.7	CCc1ccc(OC)c(S(=O)(=O)Nc2ccc3c(c2)CNCC3)c1 [Example 86, 5-Ethyl-2-methoxy-N-(1,2,3,4-tetrahydro-isoquinolin-7-yl)-benzenesulfonamide hydrochloride]
72.3	85.5	5.7	O=S(=O)(Nc1ccc2c(c1)CCNC2)c1ccc(Cl)c2ccccc12 [Example 31, 4-Chloro-naphthalene-1-sulfonic acid (1,2,3,4-tetrahydro-isoquinolin-6-yl)-amide hydrochloride]
